Measurements taken from the NIST ThermoML archive (doi:10.1016/j.fluid.2015.05.026).
Several values for one entry are separate records, joined by “and”; a condition that tells them apart may be missing. Equal values may be shown once. ± gives the expanded uncertainty stated by the source.

Experiments:
[1] = molar heat capacity at constant pressure; settings: 101.33 kPa, Liquid, Large sample (1 g) DSC
[2] = Liquid, Closed cell (Static) method

Compound | molar heat capacity at constant pressure ([1]; 265 K) [J/K/mol] | molar heat capacity at constant pressure ([1]; 270 K) [J/K/mol] | molar heat capacity at constant pressure ([1]; 275 K) [J/K/mol] | molar heat capacity at constant pressure ([1]; 280 K) [J/K/mol] | molar heat capacity at constant pressure ([1]; 285 K) [J/K/mol] | molar heat capacity at constant pressure ([1]; 290 K) [J/K/mol] | molar heat capacity at constant pressure ([1]; 295 K) [J/K/mol] | molar heat capacity at constant pressure ([1]; 300 K) [J/K/mol] | molar heat capacity at constant pressure ([1]; 305 K) [J/K/mol] | vapor or sublimation pressure ([2]; 253.15 K) | vapor or sublimation pressure ([2]; 258.15 K) | vapor or sublimation pressure ([2]; 263.15 K) | vapor or sublimation pressure ([2]; 268.15 K) | vapor or sublimation pressure ([2]; 278.15 K) | vapor or sublimation pressure ([2]; 283.15 K) | vapor or sublimation pressure ([2]; 288.15 K) | vapor or sublimation pressure ([2]; 293.15 K) | vapor or sublimation pressure ([2]; 298.15 K) | vapor or sublimation pressure ([2]; 303.15 K) | vapor or sublimation pressure ([2]; 308.15 K) | further results
CC/C=C\CCO [(Z)-3-hexen-1-ol] | 206.7 ± 5.1 | 210.2 ± 5.1 | 213.9 ± 5.2 | 217.6 ± 5.3 | 221.4 ± 5.4 | 225.4 ± 5.5 | 229.7 ± 5.6 | 234 ± 5.7 | 238.2 ± 5.8 | 0.001923 ± 0.00016 kPa and 0.001926 ± 0.00016 kPa and 0.001921 ± 0.00016 kPa | 0.003383 ± 0.0002 kPa and 0.003393 ± 0.0002 kPa and 0.003395 ± 0.0002 kPa | 0.005802 ± 0.00028 kPa and 0.005803 ± 0.00028 kPa and 0.005805 ± 0.00028 kPa | 0.009727 ± 0.00041 kPa and 0.009728 ± 0.00041 kPa and 0.009737 ± 0.00041 kPa | 0.02561 ± 0.00074 kPa and 0.02562 ± 0.00074 kPa and 0.02563 ± 0.00074 kPa | 0.04036 ± 0.001 kPa and 0.04037 ± 0.001 kPa | 0.06241 ± 0.0014 kPa and 0.06244 ± 0.0014 kPa | 0.09491 ± 0.002 kPa and 0.09494 ± 0.002 kPa and 0.09496 ± 0.002 kPa | 0.142 ± 0.0025 kPa | 0.2089 ± 0.0033 kPa and 0.209 ± 0.0033 kPa | 0.3032 ± 0.0044 kPa and 0.3034 ± 0.0044 kPa | molar heat capacity at constant pressure ([1]; 310 K): 242.4 ± 5.9 J/K/mol; molar heat capacity at constant pressure ([1]; 315 K): 246.7 ± 6 J/K/mol; molar heat capacity at constant pressure ([1]; 320 K): 250.9 ± 6.1 J/K/mol; molar heat capacity at constant pressure ([1]; 325 K): 255.2 ± 6.3 J/K/mol; molar heat capacity at constant pressure ([1]; 330 K): 259.2 ± 6.3 J/K/mol; molar heat capacity at constant pressure ([1]; 335 K): 263.1 ± 6.4 J/K/mol; molar heat capacity at constant pressure ([1]; 340 K): 266.8 ± 6.5 J/K/mol; molar heat capacity at constant pressure ([1]; 345 K): 270.8 ± 6.6 J/K/mol; molar heat capacity at constant pressure ([1]; 350 K): 274.6 ± 6.7 J/K/mol; molar heat capacity at constant pressure ([1]; 355 K): 277.8 ± 6.8 J/K/mol; vapor or sublimation pressure ([2]; 238.15 K): 0.000301 ± 0.00013 kPa and 0.000303 ± 0.00013 kPa and 0.000304 ± 0.00013 kPa; vapor or sublimation pressure ([2]; 243.15 K): 0.000577 ± 0.00014 kPa and 0.000579 ± 0.00014 kPa and 0.00058 ± 0.00014 kPa; vapor or sublimation pressure ([2]; 248.15 K): 0.001062 ± 0.00014 kPa and 0.001066 ± 0.00014 kPa and 0.001069 ± 0.00014 kPa; vapor or sublimation pressure ([2]; 273.65 K): 0.01674 ± 0.00059 kPa
C=CC(O)CCC (configuration not stated) [1-hexen-3-ol] | 235.9 ± 5.8 | 241 ± 5.9 | 246 ± 6 | 250.8 ± 6.1 | 255.5 ± 6.3 | 260.1 ± 6.4 | 264.8 ± 6.5 | 269.3 ± 6.6 | 273.6 ± 6.7 | 0.007373 ± 0.00033 kPa and 0.007376 ± 0.00033 kPa | 0.01269 ± 0.00052 kPa and 0.0127 ± 0.0005 kPa and 0.01271 ± 0.00052 kPa | 0.0214 ± 0.0007 kPa and 0.02141 ± 0.00067 kPa | 0.03517 ± 0.00091 kPa and 0.03518 ± 0.00091 kPa | 0.08933 ± 0.0019 kPa and 0.08939 ± 0.0019 kPa | 0.1383 ± 0.0025 kPa and 0.1384 ± 0.0025 kPa | 0.2097 ± 0.0033 kPa and 0.2098 ± 0.0033 kPa | 0.3122 ± 0.0046 kPa and 0.3123 ± 0.0046 kPa | 0.4574 ± 0.0064 kPa and 0.4576 ± 0.0064 kPa | 0.6587 ± 0.0089 kPa and 0.6589 ± 0.0089 kPa | 0.9353 ± 0.012 kPa and 0.9355 ± 0.012 kPa | molar heat capacity at constant pressure ([1]; 310 K): 277.6 ± 6.8 J/K/mol; molar heat capacity at constant pressure ([1]; 315 K): 281.6 ± 6.9 J/K/mol; molar heat capacity at constant pressure ([1]; 320 K): 285.4 ± 7 J/K/mol; molar heat capacity at constant pressure ([1]; 325 K): 289.1 ± 7.1 J/K/mol; molar heat capacity at constant pressure ([1]; 330 K): 292.5 ± 7.2 J/K/mol; molar heat capacity at constant pressure ([1]; 335 K): 295.4 ± 7.2 J/K/mol; molar heat capacity at constant pressure ([1]; 340 K): 298.2 ± 7.3 J/K/mol; molar heat capacity at constant pressure ([1]; 345 K): 301.2 ± 7.4 J/K/mol; molar heat capacity at constant pressure ([1]; 350 K): 303.8 ± 7.4 J/K/mol; molar heat capacity at constant pressure ([1]; 354.7 K): 305.5 ± 7.5 J/K/mol; vapor or sublimation pressure ([2]; 238.2 K): 0.001239 ± 0.00015 kPa and 0.001245 ± 0.00015 kPa and 0.001252 ± 0.00015 kPa; vapor or sublimation pressure ([2]; 243.15 K): 0.002307 ± 0.00017 kPa and 0.002309 ± 0.00017 kPa and 0.00231 ± 0.00017 kPa; vapor or sublimation pressure ([2]; 248.15 K): 0.004181 ± 0.00022 kPa; vapor or sublimation pressure ([2]; 248.2 K): 0.004188 ± 0.00022 kPa and 0.004193 ± 0.00022 kPa; vapor or sublimation pressure ([2]; 273.15 K): 0.05668 ± 0.0013 kPa and 0.05669 ± 0.0013 kPa and 0.05671 ± 0.0013 kPa
CCCCCCO [hexan-1-ol] |  |  |  |  |  |  |  |  |  | 0.001054 ± 0.00015 kPa and 0.001051 ± 0.00015 kPa and 0.001057 ± 0.00015 kPa | 0.001918 ± 0.00016 kPa and 0.001915 ± 0.00016 kPa and 0.00192 ± 0.00016 kPa | 0.003393 ± 0.0002 kPa and 0.003385 ± 0.0002 kPa | 0.005838 ± 0.00028 kPa and 0.005843 ± 0.00028 kPa and 0.005839 ± 0.00028 kPa | 0.01629 ± 0.00058 kPa and 0.0163 ± 0.0006 kPa | 0.02639 ± 0.00076 kPa and 0.02642 ± 0.00076 kPa | 0.04189 ± 0.001 kPa and 0.0419 ± 0.001 kPa | 0.06536 ± 0.0014 kPa and 0.06537 ± 0.0014 kPa | 0.1001 ± 0.0021 kPa | 0.1505 ± 0.0026 kPa | 0.223 ± 0.004 kPa and 0.223 ± 0.0035 kPa and 0.2231 ± 0.0035 kPa | vapor or sublimation pressure ([2]; 237.95 K): 0.000143 ± 0.00013 kPa; vapor or sublimation pressure ([2]; 238 K): 0.000143 ± 0.00013 kPa and 0.000145 ± 0.00013 kPa; vapor or sublimation pressure ([2]; 243.2 K): 0.000296 ± 0.00013 kPa; vapor or sublimation pressure ([2]; 243.25 K): 0.000293 ± 0.00013 kPa; vapor or sublimation pressure ([2]; 248.2 K): 0.000569 ± 0.00014 kPa and 0.00056 ± 0.00014 kPa and 0.000564 ± 0.00014 kPa; vapor or sublimation pressure ([2]; 273.15 K): 0.009866 ± 0.00042 kPa and 0.009857 ± 0.00042 kPa; vapor or sublimation pressure ([2]; 273.65 K): 0.01039 ± 0.00044 kPa
CCC/C=C/CO [(E)-2-hexen-1-ol] | 211.9 ± 5.2 | 215.1 ± 5.3 | 218.4 ± 5.4 | 221.9 ± 5.4 | 225.4 ± 5.5 | 229.2 ± 5.6 | 233.3 ± 5.7 | 237.2 ± 5.8 | 241.3 ± 5.9 | 0.001399 ± 0.00015 kPa and 0.001397 ± 0.00015 kPa | 0.002485 ± 0.00018 kPa and 0.002492 ± 0.00018 kPa and 0.002493 ± 0.00018 kPa | 0.004314 ± 0.00023 kPa and 0.004317 ± 0.00023 kPa and 0.004318 ± 0.00023 kPa | 0.007304 ± 0.00033 kPa and 0.00731 ± 0.00033 kPa and 0.007315 ± 0.00033 kPa | 0.01974 ± 0.00065 kPa and 0.01975 ± 0.00065 kPa | 0.03147 ± 0.00086 kPa and 0.03148 ± 0.00086 kPa | 0.04923 ± 0.0012 kPa and 0.04926 ± 0.0012 kPa and 0.04927 ± 0.0012 kPa | 0.07568 ± 0.0017 kPa and 0.07569 ± 0.0017 kPa | 0.1143 ± 0.0024 kPa | 0.1699 ± 0.0029 kPa | 0.2483 ± 0.004 kPa and 0.2484 ± 0.004 kPa | molar heat capacity at constant pressure ([1]; 310 K): 245.3 ± 6 J/K/mol; molar heat capacity at constant pressure ([1]; 315 K): 249.5 ± 6.1 J/K/mol; molar heat capacity at constant pressure ([1]; 320 K): 253.6 ± 6.2 J/K/mol; molar heat capacity at constant pressure ([1]; 325 K): 257.8 ± 6.3 J/K/mol; molar heat capacity at constant pressure ([1]; 330 K): 261.9 ± 6.4 J/K/mol; molar heat capacity at constant pressure ([1]; 335 K): 265.6 ± 6.5 J/K/mol; molar heat capacity at constant pressure ([1]; 340 K): 269.5 ± 6.6 J/K/mol; molar heat capacity at constant pressure ([1]; 345 K): 273.3 ± 6.7 J/K/mol; molar heat capacity at constant pressure ([1]; 350 K): 276.9 ± 6.8 J/K/mol; molar heat capacity at constant pressure ([1]; 355 K): 280.1 ± 6.9 J/K/mol; vapor or sublimation pressure ([2]; 238.15 K): 0.000207 ± 0.00013 kPa and 0.00021 ± 0.00013 kPa and 0.000211 ± 0.00013 kPa; vapor or sublimation pressure ([2]; 243.15 K): 0.000404 ± 0.00013 kPa and 0.000406 ± 0.00013 kPa and 0.000407 ± 0.00013 kPa; vapor or sublimation pressure ([2]; 248.15 K): 0.000768 ± 0.00014 kPa and 0.000772 ± 0.00014 kPa; vapor or sublimation pressure ([2]; 273.15 K): 0.01214 ± 0.0005 kPa; vapor or sublimation pressure ([2]; 273.65 K): 0.01275 ± 0.00052 kPa and 0.01276 ± 0.00052 kPa
